From ChEMBL document CHEMBL1212849, “The design, synthesis, and evaluation of 8 hybrid DFG-out allosteric kinase inhibitors: a structural analysis of the binding interactions of Gleevec, Nexavar, and BIRB-796” (Bioorg Med Chem, 2010)

Columns and labels:
[1] = biological target: Tyrosine-protein kinase ABL1 (Mus musculus, UniProt P00520)
Description: Inhibition of mouse recombinant N-terminal His6-tagged Abl by radiometric kinase assay

[2] = biological target: Mitogen-activated protein kinase 14 (Homo sapiens, UniProt Q16539); assay: Inhibition of human recombinant full-length N-terminal GST-tagged p38alpha expressed in Escherichia coli by radiometric kinase assay
Sequence of Mitogen-activated protein kinase 14 (Q16539 whole entry): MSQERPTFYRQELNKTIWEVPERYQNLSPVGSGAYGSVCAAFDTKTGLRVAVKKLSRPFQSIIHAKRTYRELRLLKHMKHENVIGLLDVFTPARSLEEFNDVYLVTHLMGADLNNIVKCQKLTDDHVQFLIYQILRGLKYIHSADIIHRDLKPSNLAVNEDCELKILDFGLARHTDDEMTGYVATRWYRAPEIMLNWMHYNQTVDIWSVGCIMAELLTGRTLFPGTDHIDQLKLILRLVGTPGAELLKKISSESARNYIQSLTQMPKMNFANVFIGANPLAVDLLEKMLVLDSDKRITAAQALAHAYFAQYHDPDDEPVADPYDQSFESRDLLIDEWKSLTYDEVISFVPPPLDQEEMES

[3] = biological target: Serine/threonine-protein kinase B-raf (Homo sapiens, UniProt P15056)
Sequence of Serine/threonine-protein kinase B-raf (P15056 whole entry): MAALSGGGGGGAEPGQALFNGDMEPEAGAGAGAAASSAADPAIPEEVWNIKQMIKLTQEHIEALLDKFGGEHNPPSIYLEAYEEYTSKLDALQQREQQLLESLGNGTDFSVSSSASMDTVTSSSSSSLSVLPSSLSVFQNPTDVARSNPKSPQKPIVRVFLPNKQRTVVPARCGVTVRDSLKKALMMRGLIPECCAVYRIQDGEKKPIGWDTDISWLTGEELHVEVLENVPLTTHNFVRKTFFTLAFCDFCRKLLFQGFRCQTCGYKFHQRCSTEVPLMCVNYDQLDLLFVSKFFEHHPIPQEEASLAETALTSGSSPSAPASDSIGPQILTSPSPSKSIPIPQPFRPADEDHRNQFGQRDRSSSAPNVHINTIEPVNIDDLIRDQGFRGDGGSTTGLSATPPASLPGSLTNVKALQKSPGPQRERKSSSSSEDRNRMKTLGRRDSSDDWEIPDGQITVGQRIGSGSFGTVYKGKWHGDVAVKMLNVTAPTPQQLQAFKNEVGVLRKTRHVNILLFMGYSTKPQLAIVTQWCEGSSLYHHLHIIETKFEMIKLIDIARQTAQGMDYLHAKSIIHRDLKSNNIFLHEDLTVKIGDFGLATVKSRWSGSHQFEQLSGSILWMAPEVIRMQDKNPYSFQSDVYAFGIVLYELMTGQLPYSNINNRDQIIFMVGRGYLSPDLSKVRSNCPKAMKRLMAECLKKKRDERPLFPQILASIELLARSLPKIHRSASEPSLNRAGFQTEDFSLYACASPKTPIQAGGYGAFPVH
Description: Inhibition of human recombinant full-length GST-tagged B-Raf by radiometric kinase assay

Sequence of Tyrosine-protein kinase ABL1 (P00520 whole entry): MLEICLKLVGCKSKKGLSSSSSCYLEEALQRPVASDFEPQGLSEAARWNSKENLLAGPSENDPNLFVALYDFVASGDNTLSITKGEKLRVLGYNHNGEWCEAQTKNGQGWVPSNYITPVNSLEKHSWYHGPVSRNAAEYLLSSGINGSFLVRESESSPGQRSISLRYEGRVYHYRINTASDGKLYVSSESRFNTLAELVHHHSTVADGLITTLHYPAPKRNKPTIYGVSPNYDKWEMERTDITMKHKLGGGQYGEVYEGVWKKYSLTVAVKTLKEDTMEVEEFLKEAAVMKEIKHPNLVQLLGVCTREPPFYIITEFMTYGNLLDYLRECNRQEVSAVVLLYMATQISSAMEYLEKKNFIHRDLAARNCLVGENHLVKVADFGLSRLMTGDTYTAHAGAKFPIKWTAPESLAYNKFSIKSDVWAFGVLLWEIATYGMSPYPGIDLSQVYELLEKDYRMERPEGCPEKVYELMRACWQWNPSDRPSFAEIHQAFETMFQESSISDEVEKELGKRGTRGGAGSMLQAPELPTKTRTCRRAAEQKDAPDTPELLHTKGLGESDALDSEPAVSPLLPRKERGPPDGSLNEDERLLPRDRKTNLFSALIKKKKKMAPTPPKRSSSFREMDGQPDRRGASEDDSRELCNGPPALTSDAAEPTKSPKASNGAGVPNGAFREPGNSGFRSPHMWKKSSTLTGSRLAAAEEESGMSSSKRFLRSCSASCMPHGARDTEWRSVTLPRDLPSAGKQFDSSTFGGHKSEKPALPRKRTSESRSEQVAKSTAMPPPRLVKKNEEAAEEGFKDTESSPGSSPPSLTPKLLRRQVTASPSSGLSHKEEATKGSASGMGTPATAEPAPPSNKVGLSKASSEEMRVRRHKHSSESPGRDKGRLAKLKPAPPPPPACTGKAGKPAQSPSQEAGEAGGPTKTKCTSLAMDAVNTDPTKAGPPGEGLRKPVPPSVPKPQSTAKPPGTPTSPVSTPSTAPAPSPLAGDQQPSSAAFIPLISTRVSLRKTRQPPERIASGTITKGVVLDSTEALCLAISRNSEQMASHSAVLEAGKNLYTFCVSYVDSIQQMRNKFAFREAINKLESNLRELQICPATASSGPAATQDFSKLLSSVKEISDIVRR

SMILES | IC50 [1] [nM] | IC50 [2] [nM] | IC50 [3] [nM]
CN1CCN(Cc2ccc(C(=O)Nc3ccc(OCCN4CCOCC4)c4ccccc34)cc2)CC1 | > 30000 | > 100000 | > 100000
CNC(=O)c1cc(Oc2ccc(NC(=O)c3ccc(CN4CCN(C)CC4)cc3)cc2)ccn1 | > 30000 | > 100000 | > 100000
CNC(=O)c1cc(Oc2ccc(NC(=O)Nc3cc(C(C)(C)C)nn3-c3ccc(C)cc3)cc2)ccn1 | 62.6 | – | 237
CNC(=O)c1cc(Oc2ccc(NC(=O)Nc3ccc(CN4CCN(C)CC4)cc3)cc2)ccn1 | 572 | > 100000 | > 100000
O=C(Nc1ccc(Cl)c(C(F)(F)F)c1)Nc1ccc(OCCN2CCOCC2)c2ccccc12 | 12900 | – | < 1
O=C(Nc1ccc(OCCN2CCOCC2)cc1)Nc1ccc(Cl)c(C(F)(F)F)c1 | 244 | 105 | 92.3
Cc1ccc(NC(=O)Nc2ccc(Cl)c(C(F)(F)F)c2)cc1Nc1nccc(-c2cccnc2)n1 | < 1 | 18.4 | 180
Cc1ccc(-n2nc(C(C)(C)C)cc2NC(=O)Nc2ccc(C)c(Nc3nccc(-c4cccnc4)n3)c2)cc1 | 8.6 | 189 | 414
